Holding throughout (format): in vivo, New Zealand albino rabbits
For one experiment, the system named is corneal epithelium. As to the kind of experiment: Ki-67 immunostaining of proliferating cells in corneal epithelium after PRK. As to conditions: 8 weeks after PRK. The procedure: (§1) Twenty-one New Zealand albino rabbits were divided in 4 groups. The three experimental groups consisted of 6 rabbits each. The control group had only 3 rabbits. The rabbits within each of the four groups were randomized to receive twice-weekly topical treatments through 72-hour collagen shields (Oasis Medical Inc.; Glendora, Calif.) for a total of eight weeks. The four treatments were as follows: (1) 0.1 μg NGF (25 μl) plus 100 μl phosphate buffered saline (PBS); (2) 100 μg DHA (100 μl) plus 25 μl of PBS; (3) 0.1 μg NGF (25 μl) plus 100 μg DHA (100 μl); and (4) 125 μl of PBS with albumin (control). […]
(§2) Rabbits were humanely euthanized at 8 weeks post-PRK surgery using an intravenous overdose of pentobarbital. […] Each section was evaluated with hematoxylin and eosin (H&E) stain and by immuno-histochemical analysis. […]
Photographs of the tissue sections were acquired using MetaVue version 5.0r3 (Universal Imaging Corp.; Downingtown, Pa.) and saved as a TIFF file. (Data not shown) The tubulin III-, CGRP- and SP-positive tissue nerve areas and the percentage of Ki-67 cells were calculated with respect to the total area using the image analysis program Image Pro Plus 4.5 (Media Cybernetics Inc., Silver Spring, Md.). Sub-basal and epithelial nerve areas were measured in all groups eight weeks after PRK using anti-class III β tubulin, CGRP and SP monoclonal antibodies. […]

The test system of experiment [1] is sub-basal and epithelial nerve bundles. Description: Class III β-tubulin staining of sub-basal and epithelial nerve bundle area after PRK. The conditions noted are these: 8 weeks after PRK. The procedure:
as §1
(§3) Statistical analyses were performed using the Statistical Analysis System (SAS) software version 9.0 (SAS Institute, Cary, N.C.). The tear secretion tests (Schirmer, tear break-up time and rose bengal staining) and density of nerve areas were analyzed using a repeated measures design in the analysis of variance (ANOVA). The differences in the tear secretion tests between the four treatment groups were analyzed at each time point. The effect of the various treatments on tubulin III-, CGRP- and SP-positive epithelial and sub-basal nerve areas was evaluated with a multivariate test. […]
as §2

For experiment [2], the system named is Rabbit Corneas. As to the kind of experiment: Rose bengal staining after PRK. As to conditions: first postoperative month (30 days after PRK). The procedure:
Twenty-one New Zealand albino rabbits weighing 1.5 to 2.0 kg were obtained from a commercial supplier and were treated in accordance with the guidelines of the Association for Research in Vision and Ophthalmology. Each rabbit received intramuscular xylazine (10 mg/kg) and ketamine hydrochloride (50 mg/kg) anesthesia. Tetracaine eye drops were used as topical anesthesia. Tear secretion tests (e.g., tear break-up time, Schirmer's test, and rose bengal staining) were performed preoperatively under general anesthesia. Each rabbit received a unilateral PRK laser treatment. The corneal epithelium was removed with an epithelial scrubber (Katena Inc, Denville, N.J.). An excimer laser ablation to correct −5 diopters of myopia using a 6.5 mm optical zone (Lasersight Technologies, Inc., Winter Park, Fla.) was performed. […]
as §3

The test system of experiment [3] is Rabbit Corneas. As to the kind of experiment: Schirmer's test (tear secretion) after PRK. As to conditions: mean ± Standard Error. The procedure: (§4) Twenty-one New Zealand albino rabbits weighing 1.5 to 2.0 kg were obtained from a commercial supplier and were treated in accordance with the guidelines of the Association for Research in Vision and Ophthalmology. Each rabbit received intramuscular xylazine (10 mg/kg) and ketamine hydrochloride (50 mg/kg) anesthesia. Tetracaine eye drops were used as topical anesthesia. Tear secretion tests (e.g., tear break-up time, Schirmer's test, and rose bengal staining) were performed preoperatively under general anesthesia. Each rabbit received a unilateral PRK laser treatment. The corneal epithelium was removed with an epithelial scrubber (Katena Inc, Denville, N.J.). An excimer laser ablation to correct −5 diopters of myopia using a 6.5 mm optical zone (Lasersight Technologies, Inc., Winter Park, Fla.) was performed. The eye was washed with balanced salt solution. Lubricating eye drops and an ophthalmic solution of 0.3% ofloxacin eye drops (Allergan Inc, Irvine, Calif.) were used postoperatively. Unless otherwise indicated, all chemicals were purchased from Sigmna Chemical Co. (St. Louis, Mo.).
Twenty-one New Zealand albino rabbits were divided in 4 groups. The three experimental groups consisted of 6 rabbits each. The control group had only 3 rabbits. The rabbits within each of the four groups were randomized to receive twice-weekly topical treatments through 72-hour collagen shields (Oasis Medical Inc.; Glendora, Calif.) for a total of eight weeks. […]
as §3

Experiment [4] concerns Rabbit Corneas. Description: Tear break-up time after PRK. The conditions noted are these: for Tear Break-Up Time: mean ± Standard Error. The protocol: as §4
Twenty-one New Zealand albino rabbits were divided in 4 groups. The three experimental groups consisted of 6 rabbits each. The control group had only 3 rabbits. The rabbits within each of the four groups were randomized to receive twice-weekly topical treatments through 72-hour collagen shields (Oasis Medical Inc.; Glendora, Calif.) for a total of eight weeks. The four treatments were as follows: (1) 0.1 μg NGF (25 μl) plus 100 μl phosphate buffered saline (PBS); (2) 100 μg DHA (100 μl) plus 25 μl of PBS; (3) 0.1 μg NGF (25 μl) plus 100 μg DHA (100 μl); and (4) 125 μl of PBS with albumin (control). In all animals, a tarsorrhaphy was performed on the treated eyes, and the eyes were opened only twice a week to introduce a new collagen shield.
Statistical analyses were performed using the Statistical Analysis System (SAS) software version 9.0 (SAS Institute, Cary, N.C.). The tear secretion tests (Schirmer, tear break-up time and rose bengal staining) and density of nerve areas were analyzed using a repeated measures design in the analysis of variance (ANOVA). The differences in the tear secretion tests between the four treatment groups were analyzed at each time point. The effect of the various treatments on tubulin III-, CGRP- and SP-positive epithelial and sub-basal nerve areas was evaluated with a multivariate test. Comparisons among the four treatments groups were made using adjusted least square means with alpha levels corrected by a simulation method.
Tear secretion tests (tear break-up time, Schirmer's test and rose bengal staining) were performed every 15 days over the 8-week period following PRK. All the tests were performed with general anesthesia. […]

Several values for one entry are separate records, joined by “and”; a condition that tells them apart may be missing. Equal entries are not always repeated.

For `CC/C=C\C/C=C\C/C=C\C/C=C\C/C=C\C/C=C\CCC(=O)O` [DHA, docosahexaenoic acid], in the experiment with corneal epithelium, the “percentage of Ki-67 positive epithelial cells” value came to 6%. In experiment [1] (FIG. 2A), the “average ratio of sub-basal tubulin-positive nerve bundle area to total area” value is recorded as about 1.2. In experiment [1] (epithelial layer, FIG. 2B), the “ratio of the tubulin positive nerve bundle area to the total epithelial area” value is “no significant effect”. In addition, the “eyes with positive rose bengal staining” value with Rabbit Corneas [2] is reported as 33%. Also, the “Schirmer's Test” value in the experiment with Rabbit Corneas [3] (15 Days after PRK) is 10 mm and 10.0 ± 3.7 mm; with Rabbit Corneas [3] (30 Days (1 month) after PRK), 11.5 mm and 11.5 ± 3.4 mm; in the experiment on Rabbit Corneas [3] (45 Days after PRK), 12.5 ± 2.3 mm. In the experiment on Rabbit Corneas [4] (1 week postoperative), the “tear break-up time measurement” value was determined as 14.5 s. In addition, the “Tear Break-Up Time” value with Rabbit Corneas [4] (15 Days after PRK) is 14.5 ± 6.2 s; with Rabbit Corneas [4] (30 Days (1 month) after PRK), 14.0 s and 14.0 ± 4.8 s; with Rabbit Corneas [4] (45 Days after PRK), 14.0 ± 4.0 s.

The record behind these values is patent publication US20070218105A1, “Topical Treatment with NGF and DHA in Damaged Corneas” (priority 2004, published 2007).
